Results: patent US20070037253A1, “Methods and compositions for treatment of arthritis and cancer” (priority 2003, published 2007)
Where a SMILES comes first, the peptide text is derived from it.

Assays:
[1] = target: T1, MMP-1, secreted from IL-1 β-stimulated rabbit synovial fibroblasts (Oryctolagus cuniculus, UniProt P13943); assay: Secreted MMP-1 activity of IL-1β-stimulated rabbit synovial fibroblasts; format: cell-based
T1 construct: endogenous in cells; host or cells: HIG-82 rabbit fibroblast-like synoviocytes (ATCC CRL-1832)
T1 sequence (P13943 99-468): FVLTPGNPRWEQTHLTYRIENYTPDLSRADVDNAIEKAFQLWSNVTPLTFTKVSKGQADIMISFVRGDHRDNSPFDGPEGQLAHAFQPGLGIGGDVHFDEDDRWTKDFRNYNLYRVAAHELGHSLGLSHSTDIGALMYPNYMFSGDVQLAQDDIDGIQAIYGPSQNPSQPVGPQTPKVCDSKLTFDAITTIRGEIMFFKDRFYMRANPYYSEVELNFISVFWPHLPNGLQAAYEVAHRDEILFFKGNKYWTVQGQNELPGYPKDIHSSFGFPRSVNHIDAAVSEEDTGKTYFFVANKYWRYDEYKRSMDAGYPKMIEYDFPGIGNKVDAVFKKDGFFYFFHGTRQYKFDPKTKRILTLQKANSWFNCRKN
Experimental: FLSC culture and inhibition of extracellular MMP activity: All experiments were performed on HIG-82 rabbit fibroblast-like synoviocytes (FLSCs) obtained from American Type Culture Collection (Manassas, Va.; catalogue No. CRL-1832). FLSCs were grown in Ham's F-12 medium containing 10% fetal bovine serum (FBS) and 1% penicillin/streptomycin, as recommended by the supplier. For experimental purposes, FLSCs were seeded into 12-well plates, grown to near confluence, and then serum starved (Ham's F-12 without FBS or penicillin/streptomycin) for 16 h. After serum starvation of FLSCs, supernatants were removed and replaced with fresh Ham's F-12 medium for 60 min at 37° C./5% CO2 before incubation for 2 h with various concentrations (1-10 μM) of test inhibitor peptides: P-NT.II, PIP [59-67] monomer and dimer. FLSCs were then stimulated for 24 h with IL-1β (10 ng/mL), and the supernatants concentrated by centrifugation in Centricon centrifugal filter devices (M.W. cutoff 30,000) for 35 min at 5000 rpm at 4° C. After activation with APMA (1 mM final concentration), the samples were measured for MMP-1 activity using BIOMOL AK-404 QuantiZyme Assay system, and for MMP-2 and -9 activities by gelatin zymography.

MMP-2 = target: T2, MMP-2 (Oryctolagus cuniculus, UniProt P50757); assay: Gelatin zymography of HIG-82 culture supernatant pre-incubated with inhibitors (FIG. 4A); format: biochemical, rabbit; details: APMA-activated HIG-82 supernatant, 5 μM peptide, 1 h at 25° C.
T2 construct: endogenous in cells; host or cells: HIG-82 rabbit synoviocytes (ATCC CRL-1832), IL-1β-induced, culture supernatant
T2 sequence (P50757 110-662): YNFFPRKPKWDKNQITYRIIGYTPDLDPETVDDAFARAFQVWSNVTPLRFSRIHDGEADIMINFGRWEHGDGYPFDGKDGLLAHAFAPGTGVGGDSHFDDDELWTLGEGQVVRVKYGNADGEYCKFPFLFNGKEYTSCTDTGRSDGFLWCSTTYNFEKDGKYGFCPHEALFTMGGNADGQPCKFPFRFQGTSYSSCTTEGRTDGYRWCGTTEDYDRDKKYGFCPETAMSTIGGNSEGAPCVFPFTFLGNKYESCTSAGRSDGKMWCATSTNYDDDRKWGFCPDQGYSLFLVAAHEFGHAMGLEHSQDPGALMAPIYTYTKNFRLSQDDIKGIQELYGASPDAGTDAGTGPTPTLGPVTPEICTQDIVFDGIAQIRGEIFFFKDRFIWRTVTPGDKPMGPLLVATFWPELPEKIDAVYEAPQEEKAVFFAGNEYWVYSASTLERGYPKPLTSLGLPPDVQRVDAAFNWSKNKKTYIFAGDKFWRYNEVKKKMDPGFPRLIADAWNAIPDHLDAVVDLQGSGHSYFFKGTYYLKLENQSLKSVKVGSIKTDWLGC
Experimental: (§1) Gelatinase activity in the supernatants from cells induced with IL-1β (5 ng) for 48 h was analyzed by gelatin zymography. (A) Supernatants (activated with final 1 mM APMA at 30° C. for 30 min) were pre-incubated with various inhibitors. (5 μM peptides or 1-2 μM Calbiochem MMP inhibitor II) for 1 h at 25° C. prior to zymographic analyses—Lane 1, without activation (no inhibitor); Lane 2, with activation (no inhibitor); Lanes 3-8, with activation plus inhibitor: 3, P-NT-II; 4, PIP [59-67] monomer; 5, PIP [57-67] dimer; 6, PIP [59-67] dimer; 7 and 8, positive control MMP Inhibitor II (Calbiochem) at 1 and 2 μM concentrations. (B) Rabbit synovial fibroblasts were stimulated by IL-1β in the presence or absence of 1-10 μM of PIP [59-67] dimer for 48 h. Culture supernatants were concentrated by centrifugation (Centricon centrifugal filter devices, M.W. cutoff 30,000) and activated with APMA (1 mM final) before measurement of gelatinase activity by gelatin zymography. Lanes: 1 (−peptide−APMA); 2 (−peptide+APMA); 3 (+1 μM peptide+APMA); 4 (+5 μM peptide+APMA); 5 (+7.5 μM peptide+APMA); 6 (+10 μM peptide+APMA). […]

MMP-9 = target: T3, MMP-9 (Oryctolagus cuniculus, UniProt P41246); assay: as above; format: biochemical, rabbit; details: APMA-activated HIG-82 supernatant, 5 μM peptide, 1 h at 25° C.
T3 construct: endogenous in cells; host or cells: HIG-82 rabbit synoviocytes (ATCC CRL-1832), IL-1β-induced, culture supernatant
Experimental: as §1

secreted MMP-2 = target: T4, secreted MMP-2 (Oryctolagus cuniculus, UniProt P50757); assay: Secreted gelatinase activity of IL-1β-stimulated rabbit synovial fibroblasts treated with peptide (FIG. 4B); format: cell-based; details: cells treated with 1-10 μM peptide, IL-1β stimulation
T4 construct: endogenous in cells; host or cells: HIG-82 rabbit fibroblast-like synoviocytes (ATCC CRL-1832)
T4 sequence (P50757 110-662): T2 sequence (P50757 110-662)
Experimental: (§2) Gelatinase activity in the supernatants from cells induced with IL-1β (5 ng) for 48 h was analyzed by gelatin zymography. (A) Supernatants (activated with final 1 mM APMA at 30° C. for 30 min) were pre-incubated with various inhibitors. (5 μM peptides or 1-2 μM Calbiochem MMP inhibitor II) for 1 h at 25° C. prior to zymographic analyses—Lane 1, without activation (no inhibitor); Lane 2, with activation (no inhibitor); Lanes 3-8, with activation plus inhibitor: 3, P-NT-II; 4, PIP [59-67] monomer; 5, PIP [57-67] dimer; 6, PIP [59-67] dimer; 7 and 8, positive control MMP Inhibitor II (Calbiochem) at 1 and 2 μM concentrations. (B) Rabbit synovial fibroblasts were stimulated by IL-1β in the presence or absence of 1-10 μM of PIP [59-67] dimer for 48 h. Culture supernatants were concentrated by centrifugation (Centricon centrifugal filter devices, M.W. cutoff 30,000) and activated with APMA (1 mM final) before measurement of gelatinase activity by gelatin zymography. Lanes: 1 (−peptide−APMA); 2 (−peptide+APMA); 3 (+1 μM peptide+APMA); 4 (+5 μM peptide+APMA); 5 (+7.5 μM peptide+APMA); 6 (+10 μM peptide+APMA).
(§3) Gelatin zymography: human synovial fluid, purified human recombinant MMP-2 and -9 or APMA-activated concentrated culture supernatant samples (10 μL) was mixed (1:1) with Laemmli sample buffer, loaded on 4% acrylamide stacking gel and electrophoresed (120 V) at 4° C. on a 10% acrylamide-resolving minigel containing 0.1% gelatin. After electrophoresis for 1 h, the gels were soaked in 2.5% Triton X-100 on a shaker for 1 h, changing the solution after 30 min, to eliminate SDS. After overnight incubation in zymogen activation buffer [50 mM Tris-HCl, pH 7.5, containing 10 mM CaCl2 and 5 mM ZnCl2] at 37° C., the gels were rinsed in distilled water, and stained for 3 hr with […], after which clear bands of digested gelatin were clearly visible. The gels were briefly rinsed in distilled water and scanned by the Bio-Rad GS-710 Calibrated Imaging Densitometer.
(§4) FLSC culture and inhibition of extracellular MMP activity: All experiments were performed on HIG-82 rabbit fibroblast-like synoviocytes (FLSCs) obtained from American Type Culture Collection (Manassas, Va.; catalogue No. CRL-1832). FLSCs were grown in Ham's F-12 medium containing 10% fetal bovine serum (FBS) and 1% penicillin/streptomycin, as recommended by the supplier. For experimental purposes, FLSCs were seeded into 12-well plates, grown to near confluence, and then serum starved (Ham's F-12 without FBS or penicillin/streptomycin) for 16 h. […] After activation with APMA (1 mM final concentration), the samples were measured for MMP-1 activity using BIOMOL AK-404 QuantiZyme Assay system, and for MMP-2 and -9 activities by gelatin zymography.

secreted MMP-9 = target: T5, secreted MMP-9 (Oryctolagus cuniculus, UniProt P41246); assay: as above; format: cell-based; details: cells treated with 1-10 μM peptide, IL-1β stimulation
T5 construct: endogenous in cells; host or cells: HIG-82 rabbit fibroblast-like synoviocytes (ATCC CRL-1832)
Experimental: as §2, §3, §4

T5 sequence (P41246 107-707): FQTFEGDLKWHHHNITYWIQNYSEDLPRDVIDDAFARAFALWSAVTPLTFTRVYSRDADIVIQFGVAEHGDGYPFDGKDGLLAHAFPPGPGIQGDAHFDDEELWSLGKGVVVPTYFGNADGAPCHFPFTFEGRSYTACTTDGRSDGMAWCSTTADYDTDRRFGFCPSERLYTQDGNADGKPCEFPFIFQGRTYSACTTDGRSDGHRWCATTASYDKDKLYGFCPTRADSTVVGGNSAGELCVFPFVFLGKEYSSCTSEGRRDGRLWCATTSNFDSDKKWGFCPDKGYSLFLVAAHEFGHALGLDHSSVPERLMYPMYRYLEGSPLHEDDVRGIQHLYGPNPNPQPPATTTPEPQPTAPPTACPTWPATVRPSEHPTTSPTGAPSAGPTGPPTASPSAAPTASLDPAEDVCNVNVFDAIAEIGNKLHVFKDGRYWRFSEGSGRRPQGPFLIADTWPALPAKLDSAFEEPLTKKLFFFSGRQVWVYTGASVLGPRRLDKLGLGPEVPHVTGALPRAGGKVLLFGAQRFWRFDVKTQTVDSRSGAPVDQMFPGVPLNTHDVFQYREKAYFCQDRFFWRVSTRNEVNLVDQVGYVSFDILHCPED
T3 sequence (P41246 107-707): as above

## CC[C@H](C)[C@H](NC(=O)[C@H](CC(=O)O)NC(=O)[C@@H](N)C(C)C)C(=O)N[C@@H](Cc1c[nH]cn1)C(=O)N[C@H](C(=O)N[C@@H](Cc1c[nH]c2ccccc12)C(=O)N[C@@H](CC(=O)O)C(=O)NCC(=O)N[C@H](C(=O)N[C@H](C(=O)N[C@@H](CC(=O)O)C(=O)N[C@H](C(=O)N[C@@H](Cc1c[nH]cn1)C(=O)N[C@H](C(=O)N[C@@H](Cc1c[nH]c2ccccc12)C(=O)N[C@@H](CC(=O)O)C(=O)NCC(=O)N[C@H](C(=O)O)C(C)C)C(C)C)[C@@H](C)CC)C(C)C)C(C)C)C(C)C [PIP [59-67] dimer] (H-VDIHVWDGVVDIHVWDGV-OH; N-terminus and C-terminus assumed)
[1]
  enzyme activity of secreted MMP-1: markedly inhibited
MMP-2
  MMP-2 gelatinase activity vs control: insignificant
MMP-9
  MMP-9 gelatinase activity vs control: insignificant
Secreted MMP-2
  activity of secreted MMP-2: failed to inhibit
Secreted MMP-2; listed as dimerized peptide
  activity of secreted MMP-2: less marked
Secreted MMP-9
  activity of secreted MMP-9: failed to inhibit
Secreted MMP-9; listed as dimerized peptide
  activity of secreted MMP-9: less marked
